Patent publication US6525001B1, “Substituted pyrimidine and pyridine herbicides” (Mid-American Commercialization Corporation, priority 1997, dated 2003)

What was measured:
Type in all cases: in vivo
Set-up in all cases: key: 0 is no effect; 10 is complete control
rice (Oryza sativa) = test: Test B flood test
Procedure, shortened: (§1)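 Plants were grown to the 2-leaf stage before treatment with test chemical, then held in a greenhouse for twelve to sixteen days. Injury was visually rated against untreated controls on a 0–10 scale, where 0 is no effect and 10 is complete control.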

[1] = system: bamyardgrass (Echinochloa crus-galli); test: Test B flood test
Procedure, shortened: as §1

[2] = system: smallflower flatsedge (Cyperus difformis); test: Test B flood test
Procedure, shortened: as §1

[3] = system: duck salad (Heteranthera limosa); test: Test B flood test
Procedure, shortened: as §1

soybean (Glycine max) = test: Test B pre-/postemergence
Procedure, shortened: (§2)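 Seeds were planted and sprayed preemergence, while plants at 2 to 18 cm (1- to 4-leaf stage) were sprayed postemergence at the same time, with test chemical in a non-phytotoxic solvent mixture containing surfactant. After twelve to sixteen days in a greenhouse, injury was rated visually against untreated controls on a 0–10 scale.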

rape (Brassica napus) = test: Test B pre-/postemergence
Procedure, shortened: as §2

[4] = system: barnyardgrass (Echinochloa crus-galli); test: Test A pre-/postemergence; conditions: 0 to 10 scale
Method: (§3) Seeds of barnyardgrass (Echinochloa crus-galli), crabgrass (Digitaria spp.), morningglory (Ipomoea spp.), and velvetleaf (Abutilon theophrasti) were planted into a sandy loam soil and treated preemergence by soil drench with test chemicals formulated in a non-phytotoxic solvent mixture which includes a surfactant. At the same time, these crop and weed species were also treated postemergence sprayed to runoff, with test chemicals formulated in the same manner. Plants ranged in height from two to eighteen cm and were in the one to two leaf stage for the postemergence treatment. Treated plants and untreated controls were maintained in a greenhouse for approximately eleven days, after which all treated plants were compared to untreated controls and visually evaluated for injury. Plant response ratings, summarized in Table A, are based on a 0 to 10 scale where 0 is no effect and 10 is complete control. A dash (−) response means no test results.

[5] = system: crabgrass (Digitaria spp.); test: Test A pre-/postemergence; conditions: 0 to 10 scale
Method: as §3

[6] = system: velvetleaf (Abutilon theophrasti); test: Test A pre-/postemergence; conditions: 0 to 10 scale
Method: as §3

[7] = system: morningglory (Ipomoea spp.); test: Test A pre-/postemergence; conditions: 0 to 10 scale
Method: as §3

[8] = Rate 62 g/ha, Postemergence (flood test)
[9] = Rate 125 g/ha, Postemergence, flood test
[10] = Rate 250 g/ha, Postemergence (flood test species)
[11] = Rate 500 g/ha, Postemergence (flood test species)
[12] = PRE SOIL DRENCH, Rate 2000 g/ha
[13] = postemergence SPRAYED TO RUNOFF, Rate 1000 g/ha

Compound | Plant response rating, Rice (rice (Oryza sativa); [8]) | Plant response rating, Rice (rice (Oryza sativa); [9]) | Plant response rating, Rice (rice (Oryza sativa); [10]) | Plant response rating, Rice (rice (Oryza sativa); [11]) | Plant response rating, Barnyardgrass [1, 8] | Plant response rating, Barnyardgrass [1, 9] | Plant response rating, Barnyardgrass [1, 10] | Plant response rating, Barnyardgrass [1, 11] | Plant response rating, S. Flatsedge [2, 8] | Plant response rating, S. Flatsedge [2, 9] | Plant response rating, S. Flatsedge [2, 10] | Plant response rating, S. Flatsedge [2, 11] | Plant response rating, Ducksalad [3, 8] | Plant response rating, Ducksalad [3, 9] | Plant response rating, Ducksalad [3, 10] | Plant response rating, Ducksalad [3, 11] | Plant response rating, Soybean (soybean (Glycine max); Rate 62 g/ha, Postemergence) | Soybean plant response rating (soybean (Glycine max); Rate 62 g/ha, Preemergence) | Plant response rating, Soybean (soybean (Glycine max); Rate 125 g/ha, Postemergence) | Soybean plant response rating (soybean (Glycine max); Rate 125 g/ha, Preemergence) | further results
Cc1cnc(-c2ccc(C(F)(F)F)cc2)nc1Cn1cc(I)cn1 [Compound 12] | 1 | 2 | 3 | 3 | 2 | 2 | 3 | 3 | 4 | 6 | 8 | 8 | 0 | 1 | 1 | 2 | 3 | 0 | 5 | 2 | Plant response rating, Soybean (soybean (Glycine max); Rate 250 g/ha, Postemergence): 5; Plant response rating, Soybean (soybean (Glycine max); Rate 250 g/ha, Preemergence): 3; Plant response rating, Soybean (soybean (Glycine max); Rate 500 g/ha, Postemergence): 5; Plant response rating, Soybean (soybean (Glycine max); Rate 500 g/ha, Preemergence): 3; Plant response rating, Rape (rape (Brassica napus); Rate 62 g/ha, Postemergence): 7; Rape plant response rating (rape (Brassica napus); Rate 62 g/ha, Preemergence): 0; Plant response rating, Rape (rape (Brassica napus); Rate 125 g/ha, Postemergence): 9; Rape plant response rating (rape (Brassica napus); Rate 125 g/ha, Preemergence): 5; Plant response rating, Rape (rape (Brassica napus); Rate 250 g/ha, Postemergence): 9; Plant response rating, Rape (rape (Brassica napus); Rate 250 g/ha, Preemergence): 6; Plant response rating, Rape (rape (Brassica napus); Rate 500 g/ha, Postemergence): 9; Plant response rating, Rape (rape (Brassica napus); Rate 500 g/ha, Preemergence): 6; Plant response rating, Barnyardgrass [4, 12]: 7; Plant response rating, Barnyardgrass [4, 13]: 5; Plant response rating, Crabgrass [5, 12]: 9; Plant response rating, Crabgrass [5, 13]: 8; Plant response rating, Velvetleaf [6, 12]: 5; Plant response rating, Velvetleaf [6, 13]: 6; Plant response rating, Morningglory [7, 12]: 3; Plant response rating, Morningglory [7, 13]: 2
Cc1cnc(-c2ccc(C(F)(F)F)cc2)nc1Cn1nc(C(F)(F)F)cc1C [Compound 13] | 0 | 0 | 0 | 1 | 2 | 2 | 3 | 3 | 2 | 4 | 4 | 5 | 0 | 1 | 2 | 3 | 4 | 1 | 5 | 1 | Plant response rating, Soybean (soybean (Glycine max); Rate 250 g/ha, Postemergence): 5; Plant response rating, Soybean (soybean (Glycine max); Rate 250 g/ha, Preemergence): 3; Plant response rating, Soybean (soybean (Glycine max); Rate 500 g/ha, Postemergence): 5; Plant response rating, Soybean (soybean (Glycine max); Rate 500 g/ha, Preemergence): 3; Plant response rating, Rape (rape (Brassica napus); Rate 62 g/ha, Postemergence): 6; Rape plant response rating (rape (Brassica napus); Rate 62 g/ha, Preemergence): 5; Plant response rating, Rape (rape (Brassica napus); Rate 125 g/ha, Postemergence): 8; Rape plant response rating (rape (Brassica napus); Rate 125 g/ha, Preemergence): 6; Plant response rating, Rape (rape (Brassica napus); Rate 250 g/ha, Postemergence): 9; Plant response rating, Rape (rape (Brassica napus); Rate 250 g/ha, Preemergence): 9; Plant response rating, Rape (rape (Brassica napus); Rate 500 g/ha, Postemergence): 9; Plant response rating, Rape (rape (Brassica napus); Rate 500 g/ha, Preemergence): 9; Plant response rating, Barnyardgrass [4, 12]: 9; Plant response rating, Barnyardgrass [4, 13]: 6; Plant response rating, Crabgrass [5, 12]: 10; Plant response rating, Crabgrass [5, 13]: 9; Plant response rating, Velvetleaf [6, 12]: 9; Plant response rating, Velvetleaf [6, 13]: 8; Plant response rating, Morningglory [7, 12]: 3; Plant response rating, Morningglory [7, 13]: 2
